{"source": "patent US9380788B2", "about": "“Package for plant antimicrobial treatment” (priority 2013, dated 2016)", "tested_on": "pepper plants", "assay_type": "in vivo", "settings": "plants sprayed with oregano/sesame oil emulsion made with the emulsifier", "data": [{"compound": "CCCCCCCCCCCCOS(=O)(=O)[O-].[Na+]", "note": "[SDS]", "values": [{"measurement": "Phytotoxicity on pepper plants", "result": "phytotoxicity"}]}, {"compound": "CCCCCCCC/C=C\\CCCCCCCC(=O)OCCOCC(OCCO)C1OCC(OCCO)C1OCCO", "note": "(stereo not shown) [Tween 80]", "values": [{"measurement": "Phytotoxicity on pepper plants", "result": "phytotoxicity"}]}, {"compound": "CCCCCCCCCCCCCCCCCC(=O)[O-].[Na+]", "note": "[sodium stearate, Sodium Stearate]", "values": [{"measurement": "Phytotoxicity on pepper plants", "result": "very vital"}]}, {"compound": "Triton X 100 [Triton X100]", "values": [{"measurement": "Phytotoxicity on pepper plants", "result": "phytotoxicity"}]}]}
